{"source": "patent US20260219274A1", "about": "“POLYOL SWEETNERS AND CARDIOVASCULAR AND THROMBOTIC EVENT RISK” (THE CLEVELAND CLINIC FOUNDATION, priority 2023, published 2026)", "key": {"[1]": {"tested_on": "patients undergoing elective diagnostic coronary angiography (European cohort)", "test": "European validation cohort: LC/MS/MS serum erythritol vs 3-year MACE", "type": "in vivo, human", "description": "In a third clinical study (the European Cohort, n=833), serum erythritol levels were quantified by stable isotope dilution LC/MS/MS in samples from sequential patients undergoing elective diagnostic coronary angiography due to (suspected) chronic coronary syndromes enrolled in the observational LipidCardio study between 2016-2018 at the Charité University Hospital, Campus Benjamin Franklin (registered under German Clinical Trial Register (drks.de); identifier: DRKS00020915) with a follow-up for 3 years^49. As a quaternary referral center, Charité University Hospital is centrally located in Europe, and subjects enrolled in the LipidCardio study have large geographic catchment, with residences throughout Europe. eGFR was calculated via CKD-MDRD equation^48. For the European validation cohort, there was a total of 833 samples available with MACE outcome data. All samples were used for the erythritol LC/MS/MS measurement.\nStable-isotope-dilution LC/MS/MS was used for quantification of erythritol, threitol, and 1,5-AHG in human and mouse plasma. Ice cold methanol (800 μL) and internal standards (D6-erythitol and ^13C6-1,5-AHG) were added to the plasma samples (20 μL), followed by vortexing and centrifuging (21,000×g; 4° C. for 15 min). The clear supernatant (800 μL) was transferred into a clean, labeled glass tubes (Borosilicate glass 12×75 mm) and dried in a speed vacuum concentrator (Speed vac plus, SC210, Thermo Sevant). The dry residue was reconstituted in acetic anhydride (100 μL) and 4-Dimethylaminopyridine (DMAP) in pyridine (100 μL; 1 mg/mL), sealed with safety caps, vortexed and heated (45 min at 80° C.) followed with drying under nitrogen. Dried residues were dissolved in HCl in water (0.1 M; 0.5 mL) and extracted with ethyl acetate (2 mL). Ethyl acetate layer was transferred into a clean glass tubes (Borosilicate glass 12×75 mm) and dried under nitrogen. The dry residue was reconstituted in ammonium formate in a mixture of methanol:water (100 μL; 50:50 v/v with 10 mM ammonium formate), tubes were vortexed and liquid was transferred to glass vials with micro-insets and caped. LC/MS/MS analysis was performed on a chromatographic system consisting of two Shimadzu LC-30 AD pumps (Nexera X2), a CTO 20AC oven operating at 30° C., and a SIL-30 AC-MP autosampler in tandem with a triple quadruple mass spectrometer (8050 series, Shimadzu Scientific Instruments, Inc., Columbia, MD, USA). For chromatographic separation, a Kinetex C18 column (50 mm×2.1 mm; […]) (Cat #00B-4462-AN, Phenomenex, Torrance, CA) was used. […] Electrospray ionization in the positive mode was used with multiple reaction monitoring (MRM) for detection of endogenous and stable isotope labeled internal standards. The following transitions were used: m/z 308.0 [M+4xC2OH2+NH4]^+→231.0 for threitol and erythritol, m/z 314.0 [M+4xC2OH2+NH4]^+→237.0 for D6-erythritol; m/z 360.1 [M+4xC2OH2+NH4]^+→273.3 for 1,5AHG; […] [M+4xC2OH2+NH4]^+→279.3 for ^13C6-1,5-AHG; The following ion source parameters were applied: nebulizing gas flow, 3 l/min; heating gas flow, 10 L/min; interface temperature, 300° C.; desolvation line temperature, 250° C.; heat block temperature, 400° C.; and drying gas flow, 10 L/min. Limit of detection (LOD) and limit of quantification (LOQ) were as follow: threitol:0.048 and 0.160 μM; erythritol: 0.026 and 0.089 μM; 1,5-AHG: […]; respectively. Three quality control samples were run with each batch of samples and inter-batch variations expressed as coefficient of variation (CV) were less than 7% for all analytes monitored. Data were collected and analyzed by LabSolution 5.91 software (Shimadzu).\nContinuous variables were summarized as median (25th and 75th percentiles), and categorical variables are presented as %. For group comparisons of patient characteristics, Kruskal-Wallis test was performed for numerical data and Chi-Square test for categorical data. […]"}, "[2]": {"tested_on": "platelets of healthy volunteers", "test": "Erythritol or glucose ingestion: platelet aggregation and granule release", "type": "in vivo, human", "experimental": "This single center trial was approved by the Cleveland Clinic Institutional Review Board (clinicaltrials.gov identifier NCT04731363). Following subject consent (nonsmokers without CVD, hypertension, or diabetes), blood was drawn after overnight fast and 30 min following consumption of water containing 30 g of […] glucose (n=10, 30.1±11 years of age, 40% male), or erythritol (n=10, 30.5±8 years of age, 50% male), a quantity commonly found in erythritol-sweetened foods and the daily intake of some subjects based on 2013-2014 National Health and Nutrition Examination Survey (NHANES) data and FDA filings.(4,5).\nFollowing erythritol consumption, postprandial circulating erythritol levels (assessed using stable-isotope-dilution liquid-chromatography tandem mass spectrometry (LC/MS/MS)3) were >1000-fold increased compared to baseline levels (median[inter quartile range], 6480[5930-7300]μM versus 3.75[3.35-3.87]μM, P<0.0001). In contrast, circulating erythritol levels remained similar before versus after glucose consumption (3.0[2.6-4.0]μM versus 2.9[2.7-3.8]μM, P=0.87; glucose levels before versus after 86.5(81.8-93.0) versus 127.0(122.3-132.3), P=0.002). […] In contrast, glucose consumption had no effect on platelet aggregation."}}, "data": [{"smiles": "OC[C@@H](O)[C@@H](O)CO", "note": "[erythritol]", "values": [{"measurement": "HR with 95% CI", "setting": "[1]; 3-year MACE per μM of erythritol, adjusted Cox model", "result": "1.16 (1.05-1.30)"}, {"measurement": "Adjusted HR, 3-year MACE", "setting": "[1]; erythritol Q2 vs Q1, female", "result": 1.82}, {"measurement": "Unadjusted HR, 3-year MACE", "setting": "[1]; erythritol Q2 vs Q1, female", "result": 1.64}, {"measurement": "Adjusted HR, 3-year MACE", "setting": "[1]; erythritol Q2 vs Q1, male", "result": 0.98}, {"measurement": "Unadjusted HR, 3-year MACE", "setting": "[1]; erythritol Q2 vs Q1, male", "result": 1.22}, {"measurement": "Adjusted HR, 3-year MACE", "setting": "[1]; erythritol Q3 vs Q1, female", "result": 1.66}, {"measurement": "Unadjusted HR, 3-year MACE", "setting": "[1]; erythritol Q3 vs Q1, female", "result": 1.67}, {"measurement": "Adjusted HR, 3-year MACE", "setting": "[1]; erythritol Q3 vs Q1, male", "result": 0.93}, {"measurement": "Unadjusted HR, 3-year MACE", "setting": "[1]; erythritol Q3 vs Q1, male", "result": 2.09}, {"measurement": "Adjusted HR, 3-year MACE", "setting": "[1]; erythritol Q4 vs Q1, female", "result": "2.27 (0.75-6.82)"}, {"measurement": "Unadjusted HR, 3-year MACE", "setting": "[1]; erythritol Q4 vs Q1, female", "result": "3.77 (1.61-8.80)"}, {"measurement": "Adjusted HR, 3-year MACE", "setting": "[1]; erythritol Q4 vs Q1, male", "result": 2.37}, {"measurement": "Unadjusted HR, 3-year MACE", "setting": "[1]; erythritol Q4 vs Q1, male", "result": 4.92}, {"measurement": "increase in the adjusted HR for MACE", "setting": "[1]; per 1 μM increase in erythritol levels", "result": 16, "unit": "%"}, {"measurement": "Q4 vs. Q1 HR (95% CI), 3-year MACE", "setting": "[1]; subgroup Age <70", "result": "3.08 (1.22-7.78)"}, {"measurement": "Q4 vs. Q1 HR (95% CI), 3-year MACE", "setting": "[1]; subgroup Age ≥70", "result": "3.49 (2.12-5.73)"}, {"measurement": "Q4 vs. Q1 HR (95% CI), 3-year MACE", "setting": "[1]; subgroup CAD", "result": "4.22 (2.58-6.89)"}, {"measurement": "Q4 vs. Q1 HR (95% CI), 3-year MACE", "setting": "[1]; subgroup Diabetes", "result": "5.16 (2.4-11.1)"}, {"measurement": "Q4 vs. Q1 HR (95% CI), 3-year MACE", "setting": "[1]; subgroup Female", "result": "3.77 (1.61-8.80)"}, {"measurement": "Q4 vs. Q1 HR (95% CI), 3-year MACE", "setting": "[1]; subgroup GFR <60 ml/min/1.73 m^3", "result": "5.25 (2.82-9.76)"}, {"measurement": "Q4 vs. Q1 HR (95% CI), 3-year MACE", "setting": "[1]; subgroup GFR ≥60 ml/min/1.73 m^3", "result": "2.38 (1.32-4.31)"}, {"measurement": "Q4 vs. Q1 HR (95% CI), 3-year MACE", "setting": "[1]; subgroup HDL-c <40 mg/dL", "result": "4.15 (1.91-8.99)"}, {"measurement": "Q4 vs. Q1 HR (95% CI), 3-year MACE", "setting": "[1]; subgroup HDL-c ≥40 mg/dL", "result": "4.28 (2.4-7.62)"}, {"measurement": "Q4 vs. Q1 HR (95% CI), 3-year MACE", "setting": "[1]; subgroup HbA1C <5.7%", "result": "2.13 (1.06-4.25)"}, {"measurement": "Q4 vs. Q1 HR (95% CI), 3-year MACE", "setting": "[1]; subgroup HbA1C ≥5.7%", "result": "5.39 (2.96-9.81)"}, {"measurement": "Q4 vs. Q1 HR (95% CI), 3-year MACE", "setting": "[1]; subgroup Hypertension", "result": "6.08 (1.31-28.1)"}, {"measurement": "Q4 vs. Q1 HR (95% CI), 3-year MACE", "setting": "[1]; subgroup LDL-c <100 mg/dL", "result": "3.92 (2.25-6.83)"}, {"measurement": "Q4 vs. Q1 HR (95% CI), 3-year MACE", "setting": "[1]; subgroup LDL-c ≥100 mg/dL", "result": "4.27 (1.94-9.37)"}, {"measurement": "Q4 vs. Q1 HR (95% CI), 3-year MACE", "setting": "[1]; subgroup Male", "result": "4.92 (2.89-8.35)"}, {"measurement": "Q4 vs. Q1 HR (95% CI), 3-year MACE", "setting": "[1]; subgroup No CAD", "result": "5.97 (1.75-20.4)"}, {"measurement": "Q4 vs. Q1 HR (95% CI), 3-year MACE", "setting": "[1]; subgroup No Diabetes", "result": "2.96 (1.72-5.10)"}, {"measurement": "Q4 vs. Q1 HR (95% CI), 3-year MACE", "setting": "[1]; subgroup No Hypertension", "result": "4.97 (3.05-8.09)"}, {"measurement": "Q4 vs. Q1 HR (95% CI), 3-year MACE", "setting": "[1]; subgroup No Prior MI", "result": "3.48 (1.77-6.87)"}, {"measurement": "Q4 vs. Q1 HR (95% CI), 3-year MACE", "setting": "[1]; subgroup Prior MI", "result": "4.69 (2.54-8.66)"}, {"measurement": "Q4 vs. Q1 HR (95% CI), 3-year MACE", "setting": "[1]; subgroup Triglycerides <150", "result": "3.71 (1.93-7.14)"}, {"measurement": "Q4 vs. Q1 HR (95% CI), 3-year MACE", "setting": "[1]; subgroup Triglycerides ≥150", "result": "3.85 (1.50-9.87)"}, {"measurement": "platelet aggregation responses to ADP and TRAP6 after ingestion", "setting": "[2]; 30 min after 30 g vs baseline", "result": "striking increase"}, {"measurement": "stimulus-dependent release of alpha granule marker CXCL4", "setting": "[2]; TRAP6 (7.5 μM), ADP (2.0 μM), after ingestion", "result": "markedly enhanced"}, {"measurement": "stimulus-dependent release of dense granule marker serotonin", "setting": "[2]; TRAP6 and ADP, after ingestion", "result": "markedly enhanced"}]}]}
